Laboratory results as given in paper PMC8587871, “Novel Thiosemicarbazone Derivatives: In Vitro and In Silico Evaluation as Potential MAO-B Inhibitors” (Molecules, 2021).

Assays:
hMAO-B [1] = target: T1, hMAO-B (Homo sapiens, UniProt P27338); experiment: In vitro fluorometric MAO-B inhibition assay; assay type: biochemical; conditions: for inhibition at 1000 µM: 10^−3 M; for inhibition at 100 µM: 10^−4 M; for inhibition at 10 µM: 10^−5 M; for inhibition at 1 µM: 10^−6 M; for inhibition at 0.1 µM: 10^−7 M; for inhibition at 0.01 µM: 10^−8 M; for inhibition at 0.001 µM: 10^−9 M; for IC50: read-out: IC50 against MAO-B
T1 sequence (P27338 1-520): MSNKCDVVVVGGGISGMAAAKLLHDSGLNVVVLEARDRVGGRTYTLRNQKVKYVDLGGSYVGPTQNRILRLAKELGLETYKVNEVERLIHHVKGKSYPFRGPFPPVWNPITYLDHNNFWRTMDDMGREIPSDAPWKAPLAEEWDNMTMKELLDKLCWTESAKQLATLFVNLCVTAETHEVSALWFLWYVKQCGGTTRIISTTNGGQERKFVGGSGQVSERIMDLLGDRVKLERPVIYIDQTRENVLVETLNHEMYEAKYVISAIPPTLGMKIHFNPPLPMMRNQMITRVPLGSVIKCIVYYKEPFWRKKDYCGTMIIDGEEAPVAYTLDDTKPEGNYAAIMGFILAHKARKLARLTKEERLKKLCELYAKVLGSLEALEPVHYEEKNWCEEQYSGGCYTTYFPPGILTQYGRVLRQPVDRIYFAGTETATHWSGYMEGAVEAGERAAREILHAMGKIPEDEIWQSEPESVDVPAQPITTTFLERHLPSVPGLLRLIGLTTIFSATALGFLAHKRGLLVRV
Method: (§1) The inhibition power on MAO isoenzymes of the synthesized compounds was evaluated by using the in vitro fluorometric method declared previously by our research group.
(§2) The in vitro MAO inhibition test was performed using the available fluorometric method, and the percentages and IC50 values of obtained compounds were calculated as previously described by our research group.

hMAO-A = target: T2, hMAO-A (Homo sapiens, UniProt P21397); experiment: In vitro fluorometric MAO-A inhibition assay; assay type: biochemical; conditions: for inhibition at 1000 µM: 10^−3 M; for inhibition at 100 µM: 10^−4 M
T2 sequence (P21397 1-527): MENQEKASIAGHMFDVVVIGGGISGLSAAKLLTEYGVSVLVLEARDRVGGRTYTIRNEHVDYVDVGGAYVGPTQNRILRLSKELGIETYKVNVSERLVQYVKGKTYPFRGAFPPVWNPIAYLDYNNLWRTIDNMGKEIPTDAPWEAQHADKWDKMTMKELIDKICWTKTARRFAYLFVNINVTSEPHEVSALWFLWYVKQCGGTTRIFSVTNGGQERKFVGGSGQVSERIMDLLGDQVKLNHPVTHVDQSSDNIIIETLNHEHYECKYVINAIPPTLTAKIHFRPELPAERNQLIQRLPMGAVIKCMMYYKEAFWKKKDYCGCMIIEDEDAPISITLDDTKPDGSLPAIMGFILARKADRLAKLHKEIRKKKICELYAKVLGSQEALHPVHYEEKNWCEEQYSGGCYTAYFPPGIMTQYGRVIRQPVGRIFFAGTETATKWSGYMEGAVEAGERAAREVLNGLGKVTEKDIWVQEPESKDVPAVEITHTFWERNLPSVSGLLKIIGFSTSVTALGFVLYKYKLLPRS
Method: as §1, §2

hMAO-B [2] = target: T1, hMAO-B; experiment: Enzyme kinetic study (Lineweaver–Burk and secondary plots) of hMAO-B inhibition; assay type: biochemical; conditions: substrate tyramine; for Type of hMAO-B inhibition: Lineweaver–Burk plots; for Ki: secondary plots, read-out: Ki (steady-state inhibition constant) for hMAO-B
Source text: Enzyme kinetic studies help to determine the inhibitory character of the relevant compound on the enzyme as irreversible or reversible inhibition, and to evaluate the nature of the inhibition of the relevant compound. The linear Lineweaver–Burk plots are the most commonly used method for this purpose. […] Enzyme kinetic assay was applied in the same way as previously mentioned. […] The rate curves of substrates were reported in the absence and presence of these compounds. In all cases, initial velocity measurements were collected at various substrate (tyramine) concentrations ranging from 20 µM to 0.625 µM. Thus, linear Lineweaver–Burk graphs of compounds 2b and 2h were formed as in Figure 4A and Figure 5A, respectively.
According to Lineweaver–Burk plots, reversible and irreversible inhibition type constitute two general categories. Mixed-type, uncompetitive, competitive, and non-competitive inhibition types are included in the reversible inhibition.
The same materials used in the MAO inhibition assay were used in this experiment. […] All processes were evaluated in quadruplicate. The results were analyzed with Microsoft Office Excel 2013 using Lineweaver–Burk diagrams. […] of the Lineweaver–Burk plots were replotted versus the inhibitors’ concentrations, and the Ki values were determined from the x-axis intercept as -Ki.

[3] = tested on: NIH/3T3 mouse embryonic fibroblast cell line; experiment: MTT cytotoxicity assay; assay type: cell-based; conditions: for Cytotoxicity at effective concentration against MAO-B: MTT assay, NIH/3T3
Method: (§3) The NIH/3T3 mouse embryonic fibroblast cell line (ATCC® CRL-1658™, London, UK) was used for cytotoxicity assays. The incubation period of NIH/3T3 cells was based on the supplier’s recommendation. NIH/3T3 cells were seeded at 1 × 10^4 cells into each well of 96-well plates. MTT assay was carried out in accordance with the standards previously described.

MTT cytotoxicity assay = assay type: cell-based, mouse; conditions: mouse, NIH/3T3 mouse embryonic fibroblast cells; MTT assay; read-out: IC50 against NIH/3T3 cells
Method: as §3

CCNC(=S)NN=Cc1cc2ccccc2o1 [Compound 2a, 2-(Benzofuran-2-ylmethylene)-N-ethylhydrazine-1-carbothioamide] gave a melting point of 179.9 to 182.1 °C, an inhibition at 1000 µM (hMAO-B [1]) of 74.2 ± 1.41% and an inhibition at 100 µM (hMAO-B [1]) of 46.4 ± 0.997%. For the same compound, the inhibition at 1000 µM (hMAO-A) was 34.1 ± 0.927% and the inhibition at 100 µM (hMAO-A) was 22.3 ± 0.824%.

For COCCNC(=S)NN=Cc1cc2ccccc2o1 [Compound 2b, 2-(Benzofuran-2-ylmethylene)-N-(2-methoxyethyl)hydrazine-1-carbothioamide], the melting point was 147.5 to 148.8 °C, the “Type of hMAO-B inhibition” value (hMAO-B [2]) was “reversible and non-competitive” and the Ki (hMAO-B [2]) was 0.035 µM. For the same compound, the inhibition at 1000 µM (hMAO-B [1]) was 91.6 ± 1.65%, the inhibition at 10 µM (hMAO-B [1]) was 81.5 ± 1.72% and the inhibition at 1 µM (hMAO-B [1]) was 75 ± 1.63%. The inhibition at 0.1 µM (hMAO-B [1]) was 66.4 ± 0.975%, the inhibition at 0.01 µM (hMAO-B [1]) was 41.5 ± 0.856% and the inhibition at 0.001 µM (hMAO-B [1]) was 25.8 ± 0.765%. The IC50 (hMAO-B [1]) was 0.042 ± 0.002 µM, the inhibition at 1000 µM (hMAO-A) was 33 ± 0.955% and the inhibition at 100 µM (hMAO-A) was 28.4 ± 0.899%. The “Cytotoxicity at effective concentration against MAO-B” value [3] was “non-cytotoxic”, the IC50 ([3]; Mus musculus, NIH3T3, Table 3 column 1 as headed) was 0.042 ± 0.002 µM and the IC50 (MTT cytotoxicity assay) was 130 µM.

For CCCCNC(=S)NN=Cc1cc2ccccc2o1 [Compound 2c, 2-(Benzofuran-2-ylmethylene)-N-butylhydrazine-1-carbothioamide], the melting point was 120.4 to 121.2 °C, the inhibition at 1000 µM (hMAO-B [1]) was 76.3 ± 1.62% and the inhibition at 100 µM (hMAO-B [1]) was 43.5 ± 0.728%. The inhibition at 1000 µM (hMAO-A) was 30.4 ± 0.902% and the inhibition at 100 µM (hMAO-A) was 26.7 ± 0.82%.

Compound S=C(NN=Cc1cc2ccccc2o1)NC1CCCCC1 [Compound 2d, 2-(Benzofuran-2-ylmethylene)-N-cyclohexylhydrazine-1-carbothioamide] has a melting point of 191.2 to 192.9 °C, an inhibition at 1000 µM (hMAO-B [1]) of 82.6 ± 1.32% and an inhibition at 100 µM (hMAO-B [1]) of 41.1 ± 0.956%. The inhibition at 1000 µM (hMAO-A) was 37.5 ± 0.897% and the inhibition at 100 µM (hMAO-A) was 20.9 ± 0.834%.

S=C(NN=Cc1cc2ccccc2o1)Nc1ccccc1 [Compound 2e, 2-(Benzofuran-2-ylmethylene)-N-phenylhydrazine-1-carbothioamide] gave a melting point of 205.2 to 206.8 °C, an inhibition at 1000 µM (hMAO-B [1]) of 85.5 ± 1.53% and an inhibition at 100 µM (hMAO-B [1]) of 40.8 ± 0.827%. For the same compound, the inhibition at 1000 µM (hMAO-A) was 36.7 ± 0.91% and the inhibition at 100 µM (hMAO-A) was 23.4 ± 0.832%.

In the case of S=C(NN=Cc1cc2ccccc2o1)Nc1ccccc1Cl [Compound 2f, 2-(Benzofuran-2-ylmethylene)-N-(2-chlorophenyl)hydrazine-1-carbothioamide], the melting point is reported as 203.6 to 204.9 °C, the inhibition at 1000 µM (hMAO-B [1]) is reported as 82.4 ± 1.33% and the inhibition at 100 µM (hMAO-B [1]) is reported as 47.4 ± 0.93%. The inhibition at 1000 µM (hMAO-A) was 31.1 ± 0.994% and the inhibition at 100 µM (hMAO-A) was 24.2 ± 0.711%.

CCNC(=S)NN=Cc1cc2ccccc2s1 [Compound 2g, 2-(Benzo[b]thiophen-2-ylmethylene)-N-ethylhydrazine-1-carbothioamide] showed a melting point of 198.9 to 201 °C, an inhibition at 1000 µM (hMAO-B [1]) of 79 ± 1.7% and an inhibition at 100 µM (hMAO-B [1]) of 44.8 ± 0.758%. The inhibition at 1000 µM (hMAO-A) was 38.9 ± 0.854% and the inhibition at 100 µM (hMAO-A) was 28.7 ± 0.803%.

With COCCNC(=S)NN=Cc1cc2ccccc2s1 [Compound 2h, 2-(Benzo[b]thiophen-2-ylmethylene)-N-(2-methoxyethyl)hydrazine-1-carbothioamide] the melting point was 164.9 to 166.2 °C, the “Type of hMAO-B inhibition” value (hMAO-B [2]) was “reversible and non-competitive” and the Ki (hMAO-B [2]) was 0.046 µM. The inhibition at 1000 µM (hMAO-B [1]) was 90.4 ± 1.6%, the inhibition at 10 µM (hMAO-B [1]) was 80.8 ± 1.04% and the inhibition at 1 µM (hMAO-B [1]) was 72.2 ± 1.39%. The inhibition at 0.1 µM (hMAO-B [1]) was 65 ± 1.11%, the inhibition at 0.01 µM (hMAO-B [1]) was 42.8 ± 0.948% and the inhibition at 0.001 µM (hMAO-B [1]) was 30.9 ± 0.782%. It also gave an IC50 (hMAO-B [1]) of 0.056 ± 0.002 µM, an inhibition at 1000 µM (hMAO-A) of 36.8 ± 0.741% and an inhibition at 100 µM (hMAO-A) of 21.9 ± 0.75%. For the same compound, the “Cytotoxicity at effective concentration against MAO-B” value [3] was “non-cytotoxic” and the IC50 (MTT cytotoxicity assay) was 81.3 µM.

In the case of CCCCNC(=S)NN=Cc1cc2ccccc2s1 [Compound 2i, 2-(Benzo[b]thiophen-2-ylmethylene)-N-butylhydrazine-1-carbothioamide], the melting point is reported as 168.9 to 170.7 °C, the inhibition at 1000 µM (hMAO-B [1]) is reported as 84.7 ± 1.63% and the inhibition at 100 µM (hMAO-B [1]) is reported as 46 ± 0.931%. The inhibition at 1000 µM (hMAO-A) was 35.7 ± 0.863% and the inhibition at 100 µM (hMAO-A) was 29.2 ± 0.816%.

S=C(NN=Cc1cc2ccccc2s1)NC1CCCCC1 [Compound 2j, 2-(Benzo[b]thiophen-2-ylmethylene)-N-cyclohexylhydrazine-1-carbothioamide] gave a melting point of 213.7 to 215.1 °C, an inhibition at 1000 µM (hMAO-B [1]) of 82.9 ± 1.62% and an inhibition at 100 µM (hMAO-B [1]) of 43 ± 0.965%. For the same compound, the inhibition at 1000 µM (hMAO-A) was 33.7 ± 0.729% and the inhibition at 100 µM (hMAO-A) was 23 ± 0.863%.

Compound S=C(NN=Cc1cc2ccccc2s1)Nc1ccccc1 [Compound 2k, 2-(Benzo[b]thiophen-2-ylmethylene)-N-phenylhydrazine-1-carbothioamide] has a melting point of 213.9 to 216 °C, an inhibition at 1000 µM (hMAO-B [1]) of 80.5 ± 1.48% and an inhibition at 100 µM (hMAO-B [1]) of 46.7 ± 0.899%. It also gave an inhibition at 1000 µM (hMAO-A) of 31.1 ± 0.911% and an inhibition at 100 µM (hMAO-A) of 27.9 ± 0.815%.

With S=C(NN=Cc1cc2ccccc2s1)Nc1ccccc1Cl [Compound 2l, 2-(Benzo[b]thiophen-2-ylmethylene)-N-(2-chlorophenyl)hydrazine-1-carbothioamide] the melting point was 212.6 to 214.4 °C, the inhibition at 1000 µM (hMAO-B [1]) was 83.6 ± 1.6% and the inhibition at 100 µM (hMAO-B [1]) was 42.2 ± 0.763%. It also gave an inhibition at 1000 µM (hMAO-A) of 36.7 ± 0.966% and an inhibition at 100 µM (hMAO-A) of 24.4 ± 0.721%.
